Measurements reported in patent US20230227508A1, “SPLIT INTEIN-BASED SELECTION FOR PEPTIDE BINDERS” (priority 2020, published 2023).
Entries after “also recorded” stand apart in the source; their conditions may differ. No end group written: not given here.

What was measured:
[1] = tested on: indicator strains from niches of the human microbiome (Table 11); test: 96-well antimicrobial profiling, residual growth (OD600); type: cell-based; settings: for antimicrobial activity (fingerprint, residual growth): set amount of SPE purified RiPP, large panel of indicator strains; for activity against strains of the alimentary tract: Bifidobacterium adolescenits, Bifidobacterium longum, Sellimonas intestinalis, Streptococcus dysgalactiae
[2] = tested on: methicillin-resistant Staphylococcus aureus (MRSA), vancomycin-resistant Enterococcus faecium (VRE), Streptococcus pneumoniae; test: Dilution series, dose-dependent killing of MDR clinical isolates; type: cell-based; settings: for dose-dependent antimicrobial activity against at least one strain: 2-fold serial dilution of SPE-purified peptide from liter scale fermentation
[3] = tested on: human microbiome-associated strains (Staphylococcus aureus, Streptococcus infantarius, Streptococcus dysgalactiae, Pediococcus acidilactici …); type: cell-based; settings: microtiter-purified RiPPs; initial test set of indicator strains
Lactobacillus crispatus = test: Antimicrobial activity against Lactobacillus crispatus; type: cell-based; settings: FIG. 57D
their target = settings: read-out: binding to their target; cited from earlier work
[4] = target: SARS-CoV-2 Spike RBD (residues 328-533) as bait (Severe acute respiratory syndrome coronavirus 2, UniProt P0DTC2)
Streptococcus pneumoniae = test: Dilution series against Streptococcus pneumoniae; type: cell-based; settings: serial dilution of SPE-purified peptide

**Q.** Which “antimicrobial activity (fingerprint, residual growth)” value [1] does the source give for GWYWGNRRDIYGALRYANKRLVPR [AMK-1010] here?
**A.** active

**Q.** With GSRWWQGVLPTVSHECRMNSFQHIFTCC [AMK-687] as the compound, how does the “antimicrobial activity against MDR clinical isolates (potency, spectrum, in words)” value [2] read?
**A.** particularly potent and broad-spectrum antimicrobial activity against all four isolates

**Q.** And the “dose-dependent antimicrobial activity against at least one strain” value (“dose-dependent antimicrobial activity” below) [2]?
**A.** Dose-dependent antimicrobial activity

**Q.** And the zones of inhibition [3]?
**A.** varying zones of inhibition

**Q.** What about the “activity against Lactobacillus crispatus” value (Lactobacillus crispatus) of the same compound?
**A.** even more pronounced activity

**Q.** And the “antimicrobial activity (fingerprint, residual growth)” value [1]?
**A.** active; also recorded: remarkable antimicrobial activity

**Q.** For `CN[C@H](CC(C)C)C(=O)N[C@H]1C(=O)N[C@@H](CC(N)=O)C(=O)N[C@H]2C(=O)N[C@H]3C(=O)N[C@H](C(=O)N[C@H](C(=O)O)c4cc(O)cc(O)c4-c4cc3ccc4O)[C@H](O)c3ccc(c(Cl)c3)Oc3cc2cc(c3O[C@@H]2O[C@H](CO)[C@@H](O)[C@H](O)[C@H]2O[C@H]2C[C@](C)(N)[C@H](O)[C@H](C)O2)Oc2ccc(cc2Cl)[C@H]1O` [vancomycin], which Kd (their target) is on record?
**A.** ~1000 nM

**Q.** Which “dose-dependent antimicrobial activity” value [2] does the source give for GGKNGVFKTISHECHLNTWAFLATCCS [AMK-691] here?
**A.** Dose-dependent antimicrobial activity

**Q.** And the zones of inhibition [3]?
**A.** varying zones of inhibition

**Q.** What about the “activity against Lactobacillus crispatus” value (Lactobacillus crispatus) of the same compound?
**A.** demonstrated activity

**Q.** What about the “antimicrobial activity (fingerprint, residual growth)” value [1] of the same compound?
**A.** active

**Q.** What does the source list for GGDGVMHTLTHECHMNTWQFLLTCC [AMK-417]?
**A.** dose-dependent antimicrobial activity against at least one strain [2]: Dose-dependent antimicrobial activity; antimicrobial activity (fingerprint, residual growth) [1]: active

**Q.** With “VCKYGEWCEIVEI [VCKYGEWCEIVEI (SEQ ID NO: 24)]” as the compound, how does the “specificity for the Spike RBD as bait over Mdm2*” value [4] read?
**A.** 14 fold

**Q.** And the “transcriptional output of circuit” value [4]?
**A.** strong transcriptional output

**Q.** For “GGGWYTAFKLTLAGRCGLCFTCSYECTSNNVHC [AMK-286]”, which “activity against strains of the alimentary tract” value (“activity against strains” for short) [1] is on record?
**A.** pronounced activity

**Q.** And the “antimicrobial activity (fingerprint, residual growth)” value [1]?
**A.** active

**Q.** For “microcin J25 (GGAGHVPEYFVGIGTPISFYG; ends and bridges not checked; UniProt Q9X2V7 38-58, looked up)”, which Kd (their target) is on record?
**A.** 2000 nM

**Q.** Which “activity against strains” value [1] does the source give for “GWQTAFRLTMQGRCGGVFTLSYECATPHVSCG [AMK-916]” here?
**A.** pronounced activity

**Q.** And the “antimicrobial activity (fingerprint, residual growth)” value [1]?
**A.** active

**Q.** For “GWLWGSYRDVYGVWHGPRTNFNGAGGSSEWRLVPR [AMK-1009]”, which “antimicrobial activity (fingerprint, residual growth)” value [1] is on record?
**A.** active

**Q.** Which “dose-dependent antimicrobial activity” value [2] does the source give for “GGWFTAIQLTLAGRCGNWFTGSFECTSNNVKCG [AMK-287]” here?
**A.** Dose-dependent antimicrobial activity

**Q.** What about the “activity against Streptococcus pneumoniae” value (Streptococcus pneumoniae) of the same compound?
**A.** pronounced activity

**Q.** And the zones of inhibition [3]?
**A.** varying zones of inhibition

**Q.** And the “activity against other Streptococci (strains with significant activity, spectrum)” value ([1]; 5 Streptococcal strains of the panel)?
**A.** narrow spectrum of activity

**Q.** What about the “activity against strains” value [1] of the same compound?
**A.** pronounced activity

**Q.** And the “antimicrobial activity (fingerprint, residual growth)” value [1]?
**A.** active

**Q.** With GLIYGKYRDVLSGARLVTPPEVALRLVPR [AMK-917] as the compound, how does the “antimicrobial activity (fingerprint, residual growth)” value [1] read?
**A.** active

**Q.** For “GHVELMNADKVKCKSTSTTKSCSSTSTTSVD [AMK-720]”, which “antimicrobial activity (fingerprint, residual growth)” value [1] is on record?
**A.** exceptionally broad antimicrobial activity
